From PubChem BioAssay AID330 (DTP/NCI, 2004) come the findings set out here.

“And” between values parts separate entries of the source, which are not always exact repeats. Equal entries are not always repeated. Toxic doses and inconclusive results are not listed.

This test has as its system P388 leukemia ip, CD2F1 mice, survival T/C. The experiment in a line: NCI In Vivo Anticancer Drug Screen. Data for tumor model P388 Leukemia (intraperitoneal) in CD2F1 (CDF1) mice. To be noted: endpoint: median survival time, higher = longer survival. Put shortly: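 Mice carrying the transplanted tumor received test compound or vehicle. Survival was recorded in each group, and the value is the treated-group measurement divided by that of the vehicle-treated control group.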

[1] abbreviates: dose: 50.0 mg/kg/injection, schedule: Q01DX009 (ip), vehicle: saline with Tween-80.
Where [2] appears, read: dose: 25.0 mg/kg/injection, schedule: Q01DX009 (ip), vehicle: saline with Tween-80.
The mark [3] stands for this setting: dose: 60.0 mg/kg/injection, schedule: Q01DX005 (ip), vehicle: saline with Tween-80.
Setting [4] is: dose: 120.0 mg/kg/injection, schedule: Q01DX005 (ip), vehicle: saline with Tween-80.
[5] abbreviates: dose: 240.0 mg/kg/injection, schedule: Q01DX005 (ip), vehicle: saline with Tween-80.

As for `COC(=O)c1ccc(CSc2ccccc2NC(=S)Nc2cccc(C(F)(F)F)c2)o1`, the T/C by setting is: (dose: 6.25 mg/kg/injection, schedule: Q01DX005 (ip), vehicle: saline with Tween-80) 104 % of control; (dose: 12.5 mg/kg/injection, schedule: Q01DX005 (ip), vehicle: saline with Tween-80) 100 % of control; (dose: 25.0 mg/kg/injection, schedule: Q01DX005 (ip), vehicle: saline with Tween-80) 98 % of control.

Regarding `CSCc1cc(Cl)ccc1N`, the T/C runs as follows: under setting [1], 97 % of control; (dose: 100.0 mg/kg/injection, schedule: Q01DX009 (ip), vehicle: saline with Tween-80) 97 % of control; (dose: 200.0 mg/kg/injection, schedule: Q01DX009 (ip), vehicle: saline with Tween-80) 97 % of control.

With `C=C(C)CN1C(=O)C(C)S/C1=N/N=C1/SCC(=O)N1C` (configuration not stated), the T/C is 99 % of control (dose: 62.5 mg/kg/injection, schedule: Q01DX009 (ip), vehicle: saline) and 98 % of control (dose: 125.0 mg/kg/injection, schedule: Q01DX009 (ip), vehicle: saline).

`Cc1ccc2snnc2c1`: the T/C by setting is: (dose: 1.56 mg/kg/injection, schedule: Q01DX009 (ip), vehicle: Klucel (hydroxypropylcellulose) (HPC)) 98 % of control; (dose: 3.12 mg/kg/injection, schedule: Q01DX009 (ip), vehicle: Klucel (hydroxypropylcellulose) (HPC)) 99 % of control; (dose: 6.25 mg/kg/injection, schedule: Q01DX009 (ip), vehicle: Klucel (hydroxypropylcellulose) (HPC)) 98 % of control and 95 % of control; (dose: 12.5 mg/kg/injection, schedule: Q01DX001 (ip), vehicle: Klucel (hydroxypropylcellulose) (HPC)) 100 % of control; (dose: 25.0 mg/kg/injection, schedule: Q01DX001 (ip), vehicle: Klucel (hydroxypropylcellulose) (HPC)) 95 % of control; (dose: 50.0 mg/kg/injection, schedule: Q01DX001 (ip), vehicle: Klucel (hydroxypropylcellulose) (HPC)) 99 % of control.

Consider `CN(C)C(=S)/N=c1\ss/c(=N/C(=S)N(C)C)n1-c1ccc([N+](=O)[O-])cc1`, for which the T/C by setting is: (dose: 6.25 mg/kg/injection, schedule: Q01DX009 (ip), vehicle: saline with Tween-80) 102 % of control; (dose: 12.5 mg/kg/injection, schedule: Q01DX009 (ip), vehicle: saline with Tween-80) 103 % of control; under setting [2], 103 % of control.

For `Cc1nc(C(=O)OCc2ccccc2)cc(OCc2ccccc2)c1C`, the T/C is 101 % of control (dose: 12.5 mg/kg/injection, schedule: Q01DX009 (ip), vehicle: distilled water + Tween-80); 90 % of control (dose: 25.0 mg/kg/injection, schedule: Q01DX009 (ip), vehicle: distilled water + Tween-80); 95 % of control (dose: 50.0 mg/kg/injection, schedule: Q01DX009 (ip), vehicle: distilled water + Tween-80); 90 % of control (dose: 100.0 mg/kg/injection, schedule: Q01DX009 (ip), vehicle: distilled water + Tween-80); 93 % of control (dose: 200.0 mg/kg/injection, schedule: Q01DX009 (ip), vehicle: distilled water + Tween-80).

With `Cc1ccc2c(=O)n3cc(CCC#N)cc3c(=O)[nH]c2c1O`, the T/C was 99 % of control (dose: 100.0 mg/kg/injection, schedule: Q01DX001 (ip), vehicle: Klucel (hydroxypropylcellulose) (HPC)); 89 % of control (dose: 200.0 mg/kg/injection, schedule: Q01DX001 (ip), vehicle: Klucel (hydroxypropylcellulose) (HPC)); 92 % of control (dose: 400.0 mg/kg/injection, schedule: Q01DX001 (ip), vehicle: Klucel (hydroxypropylcellulose) (HPC)).

With `CCCC[CH2][Pb]([CH2]CCCC)([CH2]CCCC)[O]C(C)=O`, the T/C (dose: 0.25 mg/kg/injection, schedule: Q01DX009 (ip), vehicle: saline sonified) is 104 % of control; the T/C (dose: 0.5 mg/kg/injection, schedule: Q01DX009 (ip), vehicle: saline sonified) is 109 % of control; the T/C (dose: 1.0 mg/kg/injection, schedule: Q01DX009 (ip), vehicle: saline sonified) was 104 % of control.

In the case of `CSC1=NC(=S)C(C)(C)NN1`, the T/C (dose: 100.0 mg/kg/injection, schedule: Q04DX002 (ip), vehicle: Klucel (hydroxypropylcellulose) (HPC)) is 104 % of control.

With `CC1SC2(C(=O)Nc3ccc(Br)cc32)N(c2ccc(Cl)cc2)C1=O` (configuration not stated), the T/C is, setting by setting: under setting [3], 97 % of control; under setting [4], 109 % of control; under setting [5], 100 % of control.

Consider `NC(=S)N/N=C/c1cn(-c2ccc(N)cc2)cn1`, for which the T/C was 100 % of control (dose: 25.0 mg/kg/injection, schedule: Q04DX003 (ip), vehicle: Klucel (hydroxypropylcellulose) (HPC)); 91 % of control (dose: 50.0 mg/kg/injection, schedule: Q04DX003 (ip), vehicle: Klucel (hydroxypropylcellulose) (HPC)); 100 % of control (dose: 100.0 mg/kg/injection, schedule: Q04DX003 (ip), vehicle: Klucel (hydroxypropylcellulose) (HPC)).

For the molecule `CCCC(O)(CCC)C1=NCCN1`, the T/C is, setting by setting: (dose: 12.5 mg/kg/injection, schedule: Q01DX005 (ip), vehicle: saline) 103 % of control; (dose: 25.0 mg/kg/injection, schedule: Q01DX005 (ip), vehicle: saline) 102 % of control; (dose: 50.0 mg/kg/injection, schedule: Q01DX005 (ip), vehicle: saline) 99 % of control and 102 % of control.

As for `CC1OC=CC(OC2OC(CO)C(O)C(O)C2O)C1O` (configuration not stated), the T/C was 109 % of control (dose: 21.25 mg/kg/injection, schedule: Q01DX005 (ip), vehicle: saline); 116 % of control (dose: 42.5 mg/kg/injection, schedule: Q01DX005 (ip), vehicle: saline); 108 % of control (dose: 85.0 mg/kg/injection, schedule: Q01DX005 (ip), vehicle: saline); 101 % of control (dose: 170.0 mg/kg/injection, schedule: Q01DX005 (ip), vehicle: saline).

On to `O=C(O)CCC(=O)OCN1C(=O)C2C3C=CC(C2C1=O)C1C2C(=O)N(COC(=O)CCC(=O)O)C(=O)C2C31` (configuration not stated), for which the T/C was 103 % of control and 107 % of control (2×) (dose: 25.0 mg/kg/injection, schedule: Q01DX009 (ip), vehicle: water); 115 % of control and 116 % of control and 122 % of control (dose: 50.0 mg/kg/injection, schedule: Q01DX009 (ip), vehicle: water); 165 % of control and 178 % of control (dose: 100.0 mg/kg/injection, schedule: Q01DX009 (ip), vehicle: water).

`CC(=O)Nc1ccc(/C=N/NC(=O)c2ccc(C)cc2)cc1`: the T/C was 103 % of control under setting [2] and 86 % of control under setting [1].

In the case of `CCC1(O)OC(=O)C(C)=C1C` (configuration not stated), the T/C is, setting by setting: (dose: 12.5 mg/kg/injection, schedule: Q04DX003 (ip), vehicle: saline) 98 % of control; (dose: 25.0 mg/kg/injection, schedule: Q04DX003 (ip), vehicle: saline) 95 % of control; (dose: 50.0 mg/kg/injection, schedule: Q04DX003 (ip), vehicle: saline) 99 % of control.

On to `COc1cc(C(NC(N)=O)c2cc3c(cc2OC(C)=O)OCO3)cc(OC)c1OC` (configuration not stated), for which the T/C is, setting by setting: (dose: 60.0 mg/kg/injection, schedule: Q01DX005 (ip), vehicle: Klucel (hydroxypropylcellulose) (HPC)) 90 % of control; (dose: 120.0 mg/kg/injection, schedule: Q01DX005 (ip), vehicle: Klucel (hydroxypropylcellulose) (HPC)) 86 % of control.

On to `CC1(CCl)CC(=O)N1C(N)=O` (configuration not stated), for which the T/C is 96 % of control (dose: 50.0 mg/kg/injection, schedule: Q01DX009 (ip), vehicle: saline); 104 % of control (dose: 100.0 mg/kg/injection, schedule: Q01DX009 (ip), vehicle: saline); 105 % of control (dose: 200.0 mg/kg/injection, schedule: Q01DX009 (ip), vehicle: saline).

Consider `CCCCc1c(C#N)c(=O)n2c(N)c(C#N)cnc2c1SC`, for which the T/C under setting [3] was 93 % of control, the T/C under setting [4] is 93 % of control and the T/C under setting [5] is 87 % of control.

Regarding `CCOc1ccc(-n2c(=O)c(N=Nc3ccc(C)cc3)c(O)n(-c3ccc(Br)cc3)c2=S)cc1`, the T/C is, setting by setting: (dose: 100.0 mg/kg/injection, schedule: Q04DX002 (ip), vehicle: saline with Tween-80) 96 % of control; (dose: 200.0 mg/kg/injection, schedule: Q04DX002 (ip), vehicle: saline with Tween-80) 94 % of control; (dose: 400.0 mg/kg/injection, schedule: Q04DX002 (ip), vehicle: saline with Tween-80) 90 % of control.

With `CC(/C=N\Nc1ccc(Cl)cc1)=N/NC(=S)NCC(C)C`, the T/C was 103 % of control (dose: 100.0 mg/kg/injection, schedule: Q01DX001 (ip), vehicle: saline with Tween-80); 100 % of control (dose: 200.0 mg/kg/injection, schedule: Q01DX001 (ip), vehicle: saline with Tween-80); 94 % of control (dose: 400.0 mg/kg/injection, schedule: Q01DX001 (ip), vehicle: saline with Tween-80).

On to `CCOC(=O)c1ccc(Nc2nc(NNC(=O)c3ccncc3)nc(Nc3ccc(C)cc3)n2)cc1`, for which the T/C by setting is: under setting [3], 99 % of control; under setting [4], 99 % of control; under setting [5], 99 % of control.
